Measurements taken from US3954840A, “1,3,5,7-Naphthalenetetracarboxylic acids and process for preparation thereof” (Teijin Ltd., priority 1973, dated 1976).
“And” between values parts separate entries of the source, which are not always exact repeats. Equal values may be shown once. “Also recorded” adds a separate entry of the source. Read-outs that look alike come from different tables or passages of the source. Values belong to the compound of their own block, whether it stands above or below them.

How the values were obtained:
[1] = Solubility of potassium naphthalenecarboxylates in pure water and in aqueous K4 XA solution (Table 1); type: physicochemical; details: 30% aqueous k4xa
Text: Generally, alkali metal naphthalenecarboxylates, taken individually, are easily soluble in a sufficient amount of water.

[2] = Solubility of potassium salts in water/methanol mixtures at 30°C (Table 4); type: physicochemical
Solubility in words = type: physicochemical; details: for Solubility in aqueous medium: aqueous medium (acid precipitation / disproportionation)
[3] = Solubility of K4 XA in aqueous potassium carbonate (Table 3); type: physicochemical; details: water
Thermal stability = type: physicochemical
[4] = 30°C
[5] = Stability in water / acid; type: physicochemical

SMILES: O=C([O-])c1ccc2cc(C(=O)[O-])ccc2c1.[K+].[K+]
Solubility in 100 g of a 30% by weight aqueous solution of tetrapotassium 1,3,5,7-naphthalenetetracarboxylate [1]: 1.0 g | Change of solubility with increasing methanol concentration [2]: decrease with higher methanol concentrations but not to such a great extent as in the case of K4 XA | Amount of solute dissolved in 100 g of a mixture of water and methanol ([2]; 30°C, methanol 40 wt. %): 8.5 g | Amount of solute dissolved in 100 g of a mixture of water and methanol ([2]; 30°C, methanol 60 wt. %): 3.6 g | Amount of solute dissolved in 100 g of a mixture of water and methanol ([2]; 30°C, methanol 80 wt. %): 0.88 g | Amount of solute dissolved in 100 g of a mixture of water and methanol ([2]; 30°C, methanol 100 wt. %): 0.17 g | Amount of solute dissolved in 100 g of a mixture of water and methanol ([2]; water): 32 g

SMILES: O=C(O)c1cc(C(=O)O)c2cc(C(=O)O)cc(C(=O)[O-])c2c1.[K+]
Solubility in water (Solubility in words): difficultly soluble

SMILES: O=C([O-])c1ccc2ccccc2c1.[K+]
Solubility in 100 g of a 30% by weight aqueous solution of tetrapotassium 1,3,5,7-naphthalenetetracarboxylate [1]: 0.3 g | Change of solubility with increasing methanol concentration [2]: decrease with higher methanol concentrations but not to such a great extent as in the case of K4 XA | Amount of solute dissolved in 100 g of a mixture of water and methanol ([2]; 30°C, methanol 40 wt. %): 45 g | Amount of solute dissolved in 100 g of a mixture of water and methanol ([2]; 30°C, methanol 60 wt. %): 30 g | Amount of solute dissolved in 100 g of a mixture of water and methanol ([2]; 30°C, methanol 80 wt. %): 19 g | Amount of solute dissolved in 100 g of a mixture of water and methanol ([2]; 30°C, methanol 100 wt. %): 9.3 g | Amount of solute dissolved in 100 g of a mixture of water and methanol ([2]; water): 80 g

SMILES: O=C([O-])c1cc(C(=O)[O-])c2cc(C(=O)[O-])cc(C(=O)[O-])c2c1.[K+].[K+].[K+].[K+]
Solubility in methanol (Solubility in words): slightly soluble | Solubility in water (Solubility in words): very high; also recorded: Readily soluble | Solubility (grams of the potassium salt dissolved in 100 g of solvent) [3]: 57.0 g and 48.8 g | Change of solubility with increasing methanol concentration [2]: decreases abruptly | Thermal stability (Thermal stability): almost no change occurred, but the product was stable | Amount of tetrapotassium salt dissolved in 100 g of a mixture of water and methanol ([4]; methanol 40%, K2CO3 0%): 9.0 g | Amount of tetrapotassium salt dissolved in 100 g of a mixture of water and methanol ([4]; methanol 40%, K2CO3 10%): 3.8 g | Amount of tetrapotassium salt dissolved in 100 g of a mixture of water and methanol ([4]; methanol 40%, K2CO3 20%): 1.0 g | Amount of tetrapotassium salt dissolved in 100 g of a mixture of water and methanol ([4]; methanol 40%, K2CO3 30%): 0.2 g | Amount of tetrapotassium salt dissolved in 100 g of a mixture of water and methanol ([4]; methanol 60%, K2CO3 0%): 1.7 g | Amount of tetrapotassium salt dissolved in 100 g of a mixture of water and methanol ([4]; methanol 60%, K2CO3 10%): 0.1 g | Amount of tetrapotassium salt dissolved in 100 g of a mixture of water and methanol ([4]; methanol 80%, K2CO3 0%): 0.13 g | Amount of tetrapotassium salt dissolved in 100 g of a mixture of water and methanol ([4]; methanol 80%, K2CO3 3%): < 0.01 g

SMILES: O=C([O-])c1cc(C(=O)[O-])c2cc(C(=O)O)cc(C(=O)[O-])c2c1.[K+].[K+].[K+]
Stability in water [5]: Easily decomposable

SMILES: O=C(O)c1cc(C(=O)O)c2cc(C(=O)O)cc(C(=O)O)c2c1 [1,3,5,7-naphthalenetetracarboxylic acid]
Solubility in alcohols (Solubility in words; alcohols): Insoluble | Solubility in aqueous medium (Solubility in words): very low solubility | Solubility in aqueous medium (Solubility in words; listed as H4 XA): almost insoluble | Solubility in benzene (Solubility in words): Insoluble | Solubility in ether(s) (Solubility in words): Insoluble | Solubility in various solvents (Solubility in words; various solvents): very low solubility | Solubility in water (Solubility in words; water): Insoluble | Thermal stability (Thermal stability; high temperatures (melting point above 300°C)): decomposed

SMILES: O.O.O=C([O-])c1cc(C(=O)[O-])c2cc(C(=O)[O-])cc(C(=O)[O-])c2c1.[K+].[K+].[K+].[K+] [Tetrapotassium 1,3,5,7-naphthalenetetracarboxylate dihydrate]
Amount of solute dissolved in 100 g of a mixture of water and methanol ([2]; 30°C, methanol 0 wt. %): 45 g | Amount of solute dissolved in 100 g of a mixture of water and methanol ([2]; 30°C, methanol 40 wt. %): 9 g | Amount of solute dissolved in 100 g of a mixture of water and methanol ([2]; 30°C, methanol 60 wt. %): 1.7 g | Amount of solute dissolved in 100 g of a mixture of water and methanol ([2]; 30°C, methanol 80 wt. %): 0.13 g | Amount of solute dissolved in 100 g of a mixture of water and methanol ([2]; 30°C, methanol 100 wt. %): 0.30 g

Solubility in chloroform (Solubility in words): Readily soluble | Solubility in ether(s) (Solubility in words): Readily soluble | Solubility in hot ethanol (Solubility in words; hot ethanol): Readily soluble
SMILES: CCCCOC(=O)c1cc(C(=O)OCCCC)c2cc(C(=O)OCCCC)cc(C(=O)OCCCC)c2c1 [tetra-n-butyl 1,3,5,7-naphthalenetetracarboxylate]

Solubility in acetone (Solubility in words; acetone): Readily soluble | Solubility in benzene (Solubility in words): Readily soluble | Solubility in chloroform (Solubility in words): Readily soluble | Solubility in ether(s) (Solubility in words): Readily soluble
SMILES: CCCCCCCCCCCCOC(=O)c1cc(C(=O)OCCCCCCCCCCCC)c2cc(C(=O)OCCCCCCCCCCCC)cc(C(=O)OCCCCCCCCCCCC)c2c1 [tetra-n-dodecyl 1,3,5,7-naphthalenetetracarboxylate]

SMILES: O=C([O-])c1cc(C(=O)[O-])c2cc(C(=O)[O-])cc(C(=O)[O-])c2c1.[Na+].[Na+].[Na+].[Na+] [tetrasodium 1,3,5,7-naphthalenetetracarboxylate]
Thermal stability (Thermal stability; around 400°C): stable
